Values belong to the compound of their own block, whether it stands above or below them.
How the values were obtained:
human TLR7 [1] = target: T1, human TLR7 (Homo sapiens, UniProt Q9NYK1); assay: Human TLR7 reporter gene assay (HEK-Blue hTLR7 cell line), Test 22; format: cell-based; conditions: method of Test 1
T1 construct: expresses full-length human TLR7 and secretory alkaline phosphatase (SEAP) reporter gene; host or cells: HEK293 (TLR7/NF-κB/SEAPorter)
T1 sequence (Q9NYK1 27-1049): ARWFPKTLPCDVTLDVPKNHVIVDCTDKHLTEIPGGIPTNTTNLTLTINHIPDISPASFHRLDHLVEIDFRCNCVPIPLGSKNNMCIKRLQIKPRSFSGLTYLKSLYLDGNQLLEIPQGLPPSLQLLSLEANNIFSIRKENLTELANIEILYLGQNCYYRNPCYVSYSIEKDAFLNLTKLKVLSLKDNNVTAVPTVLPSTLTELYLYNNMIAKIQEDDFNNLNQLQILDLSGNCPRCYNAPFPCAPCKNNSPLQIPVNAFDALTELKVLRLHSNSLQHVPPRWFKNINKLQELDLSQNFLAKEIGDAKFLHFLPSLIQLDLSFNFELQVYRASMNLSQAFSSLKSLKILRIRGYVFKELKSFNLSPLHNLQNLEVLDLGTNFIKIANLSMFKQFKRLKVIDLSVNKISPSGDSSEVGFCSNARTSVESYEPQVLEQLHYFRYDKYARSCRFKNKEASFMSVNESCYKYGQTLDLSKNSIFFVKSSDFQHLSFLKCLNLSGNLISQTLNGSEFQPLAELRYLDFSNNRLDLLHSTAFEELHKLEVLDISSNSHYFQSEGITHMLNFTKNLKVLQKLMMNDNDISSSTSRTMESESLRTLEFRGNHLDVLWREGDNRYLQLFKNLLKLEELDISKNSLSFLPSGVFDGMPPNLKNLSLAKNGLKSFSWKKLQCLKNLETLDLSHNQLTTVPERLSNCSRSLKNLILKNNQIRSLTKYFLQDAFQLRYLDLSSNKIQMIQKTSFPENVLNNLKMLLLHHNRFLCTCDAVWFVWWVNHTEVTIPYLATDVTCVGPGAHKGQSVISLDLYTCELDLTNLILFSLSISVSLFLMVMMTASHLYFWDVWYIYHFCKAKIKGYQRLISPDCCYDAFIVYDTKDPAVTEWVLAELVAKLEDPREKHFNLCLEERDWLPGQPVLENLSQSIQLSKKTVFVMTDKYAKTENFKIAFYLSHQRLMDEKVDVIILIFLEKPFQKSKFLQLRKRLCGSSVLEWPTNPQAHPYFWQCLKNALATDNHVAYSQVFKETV
From the text: (§1) TLR7/NF-κB/SEAPorter™ HEK293 cell line (Imgenex Corporation) is a stably co-transfected cell line which expresses full-length human TLR7 and secretory alkaline phosphatase (SEAP) reporter gene under the transcriptional regulation of an NF-κB response element. The TLR7 expression of the cell line has been already tested by flow cytometry. Transfectants with stable expression were selected using the antibiotic blasticidin and Geneticin. TLR signaling leads to the translocation of NF-κB and the activation of the promoter results in expression of the SEAP gene. TLR7-specific activation was assessed by determining the level of SEAP produced following 24-hour incubation of the cells at 37° C. with each compound prepared in Examples and Reference examples in the presence of 0.1% (v/v) dimethylsulfoxide (DMSO). The human TLR7 activity for the present compound was assessed by human TLR7 reporter gene assay, and the results are shown in Tables 3 and 4 as the compound concentration which produced half of the maximal level of SEAP induction (EC50)
According to the method of Test 1, human TLR7 reporter gene assay was done with the following samples, and the result was shown in the table below. The cell used herein was HEK-Blue™ hTLR7 cell line (Invivogen). HEK-Blue™ hTLR7 cell line is a stably co-transfected cell line which expresses full-length human TLR7 and secretory SEAP reporter gene under the transcriptional regulation of an NF-κB response element. The TLR7 expression of the cell line has been already tested by RT-PCR. Transfectants with stable expression were selected using the antibiotic blasticidin and Zeocin.

[2] = tested on: HLA-A*02:01 transgenic mouse; assay: Test 9: in vivo adjuvant activity, cocktail vaccine b, IFNγ ELISPOT; conditions: added to cocktail vaccine b; Peptide SEQ ID No. 1 or SEQ ID No. 4; 0.4 nmol per body, twice; FIG. 6 and 7
Description: Evaluation of In Vivo Adjuvant Activity in HLA-A*02:01 Transgenic Mouse
The in vivo adjuvant activity of the compounds prepared in Examples 8, 9, and 10 and the compound prepared in Reference example 12 was evaluated in the following procedure. To cocktail vaccine b comprising Compound of formula 4 prepared in Reference example 8 and Peptide SEQ ID No. 3 prepared in Reference example 3 with Montanide ISA51 VG was added the compound prepared in Example 8, 9, or 10, or the compound prepared in Reference example 12 to prepare each vaccine. The vaccine was administered to a HLA-A*02:01 transgenic mouse, and the adjuvant activity of each vaccine was evaluated by the method of testing antigen-specific CTL induction.
Specifically, Compound of formula 4 and Peptide SEQ ID No. 3 were dissolved in DMSO, and then diluted with water for injection to concentrations of Compound of formula 4 of 3 mg/mL and Peptide SEQ ID No. 3 of 2.25 mg/mL. The diluted peptide solution was mixed and emulsified with an equal volume of Montanide ISA 51 VG to prepare cocktail vaccine b. Cocktail vaccine b was injected to mice intradermally at the tail base area in an amount for administering 300 μg of Compound of formula 4 per body and 225 μg of Peptide SEQ ID No. 3 per body. Or, in the step of preparing cocktail vaccine b, the compound prepared in Example 8, 9, or 10, or the compound prepared in Reference example 12 was added to the diluted peptide solution to prepare a vaccine, and the prepared vaccine was injected to mice intradermally at the tail base area in an amount for administering 300 μg of Compound of formula 4 per body, 225 μg of Peptide SEQ ID No. 3 per body, and 0.4 nmol of the compound prepared in Example 8, 9, or 10, or the compound prepared in Reference example 12 per body. The administrations were done twice, which had one week interval. One week after the final administration, the mice were sacrificed with CO2 gas. Splenocytes were harvested from spleens removed from the mice. Like Test 4, Peptide (SEQ ID No. 1 or SEQ ID No. 4) was added to the splenocyte-containing ELISPOT plate at a final concentration of 10 μg/ml, and the plate was incubated overnight at 37° C. under an atmosphere of 5% CO2 to re-stimulate the peptide in vitro. Then, after removal of the supernatant from the wells, stained spots on the ELISPOT plate were counted.

human TLR7 [3] = target: T1, human TLR7; assay: Human TLR7 reporter gene assay (TLR7/NF-κB/SEAPorter HEK293 cell line), Tests 1 and 21; format: cell-based
From the text: Human TLR7 Reporter Gene Assay
as §1
According to the method of Test 1, human TLR7 reporter gene assay was done with the following samples, and the result was shown in the table below.

mouse TLR7 = target: T2, mouse TLR7 (Mus musculus, UniProt P58681); assay: Mouse TLR7 reporter gene assay (HEK-Blue mTLR7 cell line), Test 2; format: cell-based; conditions: half of maximal SEAP induction, 20-24-hour incubation, 0.1% DMSO
T2 construct: expresses full-length mouse TLR7 and secretory SEAP reporter gene; host or cells: HEK-Blue mTLR7 (HEK293-derived)
T2 sequence (P58681 27-1050): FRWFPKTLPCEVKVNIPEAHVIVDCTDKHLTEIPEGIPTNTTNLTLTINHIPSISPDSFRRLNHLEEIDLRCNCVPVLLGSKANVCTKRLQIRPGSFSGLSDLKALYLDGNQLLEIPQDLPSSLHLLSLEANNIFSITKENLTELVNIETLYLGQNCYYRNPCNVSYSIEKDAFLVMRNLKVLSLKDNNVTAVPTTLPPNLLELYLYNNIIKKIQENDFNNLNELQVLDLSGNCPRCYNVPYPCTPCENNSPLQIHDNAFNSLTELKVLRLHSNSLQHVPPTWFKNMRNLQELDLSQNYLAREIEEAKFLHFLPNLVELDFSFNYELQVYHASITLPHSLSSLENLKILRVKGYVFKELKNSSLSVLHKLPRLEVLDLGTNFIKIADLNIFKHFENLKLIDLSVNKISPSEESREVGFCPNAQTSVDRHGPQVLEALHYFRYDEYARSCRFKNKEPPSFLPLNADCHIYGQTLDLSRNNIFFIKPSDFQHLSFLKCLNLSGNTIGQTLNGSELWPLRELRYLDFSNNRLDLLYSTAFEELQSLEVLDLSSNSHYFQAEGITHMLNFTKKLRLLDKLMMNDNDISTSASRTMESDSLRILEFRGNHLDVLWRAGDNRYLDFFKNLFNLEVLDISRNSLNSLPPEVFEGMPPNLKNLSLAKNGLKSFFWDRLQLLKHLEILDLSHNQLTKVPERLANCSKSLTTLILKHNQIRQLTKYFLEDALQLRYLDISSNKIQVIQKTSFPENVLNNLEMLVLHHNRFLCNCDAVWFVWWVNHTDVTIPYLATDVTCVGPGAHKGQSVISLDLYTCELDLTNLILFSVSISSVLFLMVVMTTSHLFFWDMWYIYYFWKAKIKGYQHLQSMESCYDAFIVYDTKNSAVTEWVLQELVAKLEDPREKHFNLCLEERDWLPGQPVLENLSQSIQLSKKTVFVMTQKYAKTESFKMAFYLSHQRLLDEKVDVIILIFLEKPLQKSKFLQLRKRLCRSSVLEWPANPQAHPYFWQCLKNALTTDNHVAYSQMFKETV
From the text: Test 2 Mouse TLR7 Reporter Gene Assay
HEK-Blue™ mTLR7 cell line (Invivogen) is a stably co-transfected cell line which expresses full-length mouse TLR7 and secretory SEAP reporter gene under the transcriptional regulation of an NF-κB response element. The TLR7 expression of the cell line has been already tested by RT-PCR. Transfectants with stable expression were selected using the antibiotic blasticidin and Zeocin. TLR signaling leads to the translocation of NF-κB and the activation of the promoter results in expression of the SEAP gene. TLR7-specific activation was assessed by determining the level of SEAP produced following 20-24-hour incubation of the cells at 37° C. with each compound prepared in Examples and Reference examples in the presence of 0.1% (v/v) DMSO. The mouse TLR7 activity for the present compound was assessed by mouse TLR7 reporter gene assay, and the results are shown in Tables 5 and 6 as the compound concentration which produced half of the maximal level of SEAP induction (EC50).

[4] = Test 21, according to the method of Test 1, read-out: human EC50
[5] = Test 1, TLR7/NF-κB/SEAPorter HEK293 cell line, half of maximal SEAP induction, 24-hour incubation, 0.1% DMSO, read-out: EC50

EC50 (human TLR7 [1]): 71 nM
SMILES: CCCCCNc1nc(N)nc(C)c1Cc1ccc(COCCOCCOCCOCCOC)cc1OC [Example 7, 5-{[2-methoxy-4-(2,5,8,11,14-pentaoxapentadecan-1-yl)phenyl]methyl}-6-methyl-N^4-pentylpyrimidine-2,4-diamine]

EC50 (human TLR7 [3]; [4]): 388 nM
SMILES: CCCCCNc1nc(N)nc(C)c1Cc1ccc(CN(C)CCOCCOCCOCCOCCOCCOCCOCCOCCOCCO)cc1OC [Example 8, 1-(4-{[2-amino-4-methyl-6-(pentylamino)pyrimidin-5-yl]methyl}-3-methoxyphenyl)-2-methyl-5,8,11,14,17,20,23,26,29-nonaoxa-2-azahentriacontan-31-ol]
CTL counts responsive to the peptide compared with Reference example 12 [2]: more
CTL counts responsive to the peptide compared with adding no compound [2]: more

EC50 (human TLR7 [3]; [4]): 637 nM
SMILES: CCCCCNc1nc(N)nc(C)c1Cc1cc(CN(C)CCOCCOCCOCCOCCO)ccc1OC [Example 3, 1-(3-{[2-amino-4-methyl-6-(pentylamino)pyrimidin-5-yl]methyl}-4-methoxyphenyl)-2-methyl-5,8,11,14-tetraoxa-2-azahexadecan-16-ol-trifluoroacetate]

EC50 (mouse TLR7): 21 nM
EC50 (human TLR7 [3]; [5]): 94 nM
SMILES: CCC[C@@H](CCO)Nc1nc(N)nc(C)c1Cc1ccc(CN(C)CCOCCOCCOCCOCCO)cc1OC [Example 2, 1-{4-[(2-amino-4-{[(3S)-1-hydroxyhexan-3-yl]amino}-6-methylpyrimidin-5-yl)methyl]-3-methoxyphenyl}-2-methyl-5,8,11,14-tetraoxa-2-azahexadecan-16-ol-trifluoroacetate]

Second part, the compound before the results:

SMILES: CCCCCNc1nc(N)nc(C)c1Cc1ccc(CN(C)CCOCCOCCOCCOCCOCCOCCOCCOCCOCCOCCOCCOCCOCCOCCOCCOCCOCCOCCOCCOCCOCCOCCOCCO)cc1OC [Example 9, 1-(4-{[2-amino-4-methyl-6-(pentylamino)pyrimidin-5-yl]methyl}-3-methoxyphenyl)-2-methyl-5,8,11,14,17,20,23,26,29,32,35,38,41,44,47,50,53,56,59,62,65,68,71-tricosaoxa-2-azatriheptacontan-73-ol]
CTL counts responsive to the peptide compared with Reference example 12 [2]: more
CTL counts responsive to the peptide compared with adding no compound [2]: more
EC50 (human TLR7 [3]; [4]): 3990 nM

SMILES: CCCCCNc1nc(N)nc(C)c1Cc1ccc(CN(C)CCOCCOCCOCCOCCOCCOCCOCCOCCOCCOCCOCCOCCOCCOCCOCCOCCOCCOCCOCCOCCOCCOCCOCCOCCOCCOCCOCCOCCOCCOCCOCCOCCOCCOCCOCCO)cc1OC [Example 10, 1-(4-{[2-amino-4-methyl-6-(pentylamino)pyrimidin-5-yl]methyl}-3-methoxyphenyl)-2-methyl-5,8,11,14,17,20,23,26,29,32,35,38,41,44,47,50,53,56,59,62,65,68,71,74,77,80,83,86,89,92,95,98,101,104,107-pentatriacontaoxa-2-azanonahectan-109-ol]
EC50 (human TLR7 [3]; [4]): 3810 nM

SMILES: CCC[C@@H](CCO)Nc1nc(N)nc(C)c1Cc1ccc(CNC)cc1OC [compound 11, (3S)-3-{[2-amino-5-({2-methoxy-4-[(methylamino)methyl]phenyl}methyl)-6-methylpyrimidin-4-yl]amino}hexan-1-ol, reference compound]
EC50 (mouse TLR7): 2 nM
EC50 (human TLR7 [3]; [5]): 8 nM
